For this assay, the target named is Recombinant human ATX (Homo sapiens (Human), UniProt Q13822). The assay is described as follows: ATX inhibition assay (choline release, Amplex Red fluorescence). Type of assay: biochemical. The note with it: ATX 10 nM, LPC 18:1 10 μM, 37° C., 20 min pre-incubation; mean of n≧2. Put shortly: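 Activity was taken from the slope of resorufin fluorescence (530/590 nm, read every 2 min for 40 min at 37 °C) produced by choline liberated from 10 μM oleoyl LPC.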
Broadly, the IC50 is the midpoint of a concentration-inhibition curve. `Cc1nnn(Cc2cc(C(F)(F)F)ccc2CCC(=O)N2CCC(c3nnc(C)o3)CC2)n1` [Example 40, 1-(4-(5-Methyl-1,3,4-oxadiazol-2-yl)piperidin-1-yl)-3-(2-((5-methyl-2H-tetrazol-2-yl)methyl)-4-(trifluoromethyl)phenyl)propan-1-one]: the IC50 amounted to 0.042 µM. Under `Cc1nnn(Cc2cc(Cl)ccc2/C=C/C(=O)N2CCC(CCNC(=O)c3c[nH]nn3)CC2)n1` [Example 145, (E)-N-(2-(1-(3-(4-Chloro-2-((5-methyl-2H-tetrazol-2-yl)methyl)phenyl)acryloyl)piperidin-4-yl)ethyl)-1H-1,2,3-triazole-4-carboxamide] stands 0.013 µM. Under `Cc1nnn(Cc2cc(Cl)ccc2/C=C/C(=O)N2CCC(NC(=O)CCCc3c[nH]nn3)CC2)n1` [Example 151, (E)-N-(1-(3-(4-Chloro-2-((5-methyl-2H-tetrazol-2-yl)methyl)phenyl)acryloyl)piperidin-4-yl)-4-(1H-1,2,3-triazol-4-yl)butanamide] stands 0.0031 µM; under `Cc1nnn(Cc2cc(C(F)(F)F)ccc2/C=C/C(=O)N2CCN(Cc3ccn(C)n3)CC2)n1` [Example 89, (E)-1-(4-((1-Methyl-1H-pyrazol-3-yl)methyl)piperazin-1-yl)-3-(2-((5-methyl-2H-tetrazol-2-yl)methyl)-4-(trifluoromethyl)phenyl)prop-2-en-1-one], 0.0035 µM. Take `Cc1csc(C(O)C2CCN(C(=O)/C=C/c3ccc(Cl)cc3Cn3nnc(C)n3)CC2)n1` (centres unmarked) [Example 63, (E)-3-(4-Chloro-2-((5-methyl-2H-tetrazol-2-yl)methyl)phenyl)-1-(4-(hydroxy(4-methylthiazol-2-yl)methyl)piperidin-1-yl)prop-2-en-1-one]: the IC50 was determined as 0.0055 µM. For the compound `Cc1nnn(Cc2cccc(F)c2/C=C/C(=O)N2CCC(Cc3nnc(C)o3)CC2)n1` [Example 44, (E)-3-(2-Fluoro-6-((5-methyl-2H-tetrazol-2-yl)methyl)phenyl)-1-(4-((5-methyl-1,3,4-oxadiazol-2-yl)methyl)piperidin-1-yl)prop-2-en-1-one], the IC50 was determined as 0.535 µM. As for `Cc1nnn(Cc2cc(C(F)(F)F)ccc2/C=C/C(=O)N2CCC(CCOCCc3cnn[nH]3)CC2)n1` [Example 157, (E)-1-(4-(2-(2-(1H-1,2,3-Triazol-5-yl)ethoxy)ethyl)piperidin-1-yl)-3-(2-((5-methyl-2H-tetrazol-2-yl)methyl)-4-(trifluoromethyl)phenyl)prop-2-en-1-one], the IC50 was 0.0092 µM.

As for `COCC1CCN(C(=O)/C=C/c2ccc(C(F)(F)F)cc2Cn2nnc(C)n2)CC1` [Example 99, (E)-1-(4-(Methoxymethyl)piperidin-1-yl)-3-(2-((5-methyl-2H-tetrazol-2-yl)methyl)-4-(trifluoromethyl)phenyl)prop-2-en-1-one], the IC50 worked out at 0.025 µM.

In the case of `Cc1nnn(Cc2cc(Cl)ccc2/C=C/C(=O)N2CC[C@@H](c3nnc(C)o3)C2)n1` [Example 7, (R,E)-3-(4-Chloro-2-((5-methyl-2H-tetrazol-2-yl)methyl)phenyl)-1-(3-(5-methyl-1,3,4-oxadiazol-2-yl)pyrrolidin-1-yl)prop-2-en-1-one], the half-maximal inhibitory concentration (IC50) turned out to be 0.14 µM.

In the case of `Cc1nnn(Cc2cc(Cl)ccc2/C=C/C(=O)N2CCC(C(F)(F)F)CC2)n1` [Example 49.12, (E)-3-(4-Chloro-2-((5-methyl-2H-tetrazol-2-yl)methyl)phenyl)-1-(4-(trifluoromethyl)piperidin-1-yl)prop-2-en-1-one], the IC50 stood at 0.049 µM. Under `Cc1nnn(Cc2cc(C(F)(F)F)ccc2/C=C/C(=O)N2CCN(Cc3coc(C)n3)CC2)n1` [Example 74, (E)-3-(2-((5-Methyl-2H-tetrazol-2-yl)methyl)-4-(trifluoromethyl)phenyl)-1-(4-((2-methyloxazol-4-yl)methyl)piperazin-1-yl)prop-2-en-1-one] stands 0.0055 µM; under `COC(=O)C1CCCCN1C(=O)/C=C/c1ccc(Cl)cc1Cn1nnc(C)n1` (centres unmarked) [Example 29, (E)-Methyl 1-(3-(4-Chloro-2-((5-methyl-2H-tetrazol-2-yl)methyl)phenyl)acryloyl) piperidine-2-carboxylate], 0.032 µM; under `Cc1nnn(Cc2ccc(F)cc2/C=C/C(=O)N2CCC(Cc3nnc(C)o3)CC2)n1` [Example 79, (E)-3-(5-Fluoro-2-((5-methyl-2H-tetrazol-2-yl)methyl)phenyl)-1-(4-((5-methyl-1,3,4-oxadiazol-2-yl)methyl)piperidin-1-yl)prop-2-en-1-one], 3.15 µM.

On to `Cc1noc(CC2CCN(C(=O)/C=C/c3ccc(C(F)(F)F)cc3Cn3nnc(C)n3)CC2)n1` [Example 60, (E)-1-(4-((3-Methyl-1,2,4-oxadiazol-5-yl)methyl)piperidin-1-yl)-3-(2-((5-methyl-2H-tetrazol-2-yl)methyl)-4-(trifluoromethyl)phenyl)prop-2-en-1-one], for which the IC50 was 0.0088 µM. `Cc1nnn(Cc2cc(Cl)ccc2/C=C/C(=O)N2CCCCC2c2nc(C(C)C)no2)n1` (single isomer, unassigned) [Example 30b, (R or S, E)-3-(4-chloro-2-((5-methyl-2H-tetrazol-2-yl)methyl)phenyl)-1-(2-(3-isopropyl-1,2,4-oxadiazol-5-yl)piperidin-1-yl)prop-2-en-1-one]: the IC50 amounted to 0.1 µM. Under `Cc1nnn(Cc2cc(Cl)ccc2/C=C/C(=O)N2CCC(O)(Cn3cc(C(=O)N(C)C)cn3)CC2)n1` [Example 15, (E)-1-((1-(3-(4-Chloro-2-((5-methyl-2H-tetrazol-2-yl)methyl)phenyl)acryloyl)-4-hydroxypiperidin-4-yl)methyl)-N,N-dimethyl-1H-pyrazole-4-carboxamide] stands 0.062 µM; under `Cc1nnn(Cc2cc(Cl)ccc2/C=C/C(=O)N2CCN(Cc3noc(C)n3)C[C@H]2C)n1` [Example 104, (R,E)-3-(4-Chloro-2-((5-methyl-2H-tetrazol-2-yl)methyl)phenyl)-1-(2-methyl-4-((5-methyl-1,2,4-oxadiazol-3-yl)methyl)piperazin-1-yl)prop-2-en-1-one], 0.0039 µM; under `Cc1noc(C2CCCCN2C(=O)/C=C/c2ccc(Cl)cc2Cn2nnc(C)n2)n1` (racemic) [Example 23, (rac)-(E)-3-(4-Chloro-2-((5-methyl-2H-tetrazol-2-yl)methyl)phenyl)-1-(2-(3-methyl-1,2,4-oxadiazol-5-yl)piperidin-1-yl)prop-2-en-1-one], 0.028 µM. `Cc1nnn(Cc2cc(C(F)F)ccc2/C=C/C(=O)N2CCC(Cc3nnc(C)o3)CC2)n1` [Example 59, (E)-3-(4-(Difluoromethyl)-2-((5-methyl-2H-tetrazol-2-yl)methyl)phenyl)-1-(4-((5-methyl-1,3,4-oxadiazol-2-yl)methyl)piperidin-1-yl)prop-2-en-1-one]: the IC50 stood at 0.021 µM. Consider `Cc1nnn(Cc2cc(Cl)ccc2/C=C/C(=O)N2CCC(c3coc(C)n3)CC2)n1` [Example 27, (E)-3-(4-Chloro-2-((5-methyl-2H-tetrazol-2-yl)methyl)phenyl)-1-(4-(2-methyloxazol-4-yl)piperidin-1-yl)prop-2-en-1-one], for which the IC50 was determined as 0.059 µM. Under `Cc1nnc(CC2CCN(C(=O)/C=C/c3ccc(Cl)cc3Cn3nccn3)CC2)o1` [Example 75, (E)-3-(2-((2H-1,2,3-Triazol-2-yl)methyl)-4-chlorophenyl)-1-(4-((5-methyl-1,3,4-oxadiazol-2-yl)methyl)piperidin-1-yl)prop-2-en-1-one] stands 1.44 µM; under `Cc1nnn(Cc2cc(C(F)(F)F)ccc2/C=C/C(=O)N2CCN(Cc3noc(C)n3)CC2)n1` [Example 93, (E)-1-(4-((5-Methyl-1,2,4-oxadiazol-3-yl)methyl)piperazin-1-yl)-3-(2-((5-methyl-2H-tetrazol-2-yl)methyl)-4-(trifluoromethyl)phenyl)prop-2-en-1-one], 0.01 µM; under `CC(=O)N1CCCN(C(=O)/C=C/c2ccc(Cl)cc2Cn2nnc(C)n2)CC1` [Example 49.26, (E)-1-(4-Acetyl-1,4-diazepan-1-yl)-3-(4-chloro-2-((5-methyl-2H-tetrazol-2-yl)methyl)phenyl)prop-2-en-1-one], 0.16 µM. For the compound `COC(=O)C1SCCN1C(=O)/C=C/c1ccc(Cl)cc1Cn1nnc(C)n1` (centres unmarked) [Example 49.27, (E)-Methyl 3-(3-(4-chloro-2-((5-methyl-2H-tetrazol-2-yl)methyl)phenyl)acryloyl)thiazolidine-2-carboxylate], the IC50 is 0.11 µM.

Consider `Cc1nnn(Cc2cc(Cl)ccc2/C=C/C(=O)N2CCN(C3CCN(C(=O)c4c[nH]nn4)CC3)CC2)n1` [Example 149, (E)-1-(4-(1-(1H-1,2,3-Triazole-4-carbonyl)piperidin-4-yl)piperazin-1-yl)-3-(4-chloro-2-((5-methyl-2H-tetrazol-2-yl)methyl)phenyl)prop-2-en-1-one], for which the IC50 is 0.0049 µM. Under `Cc1nnn(Cc2cc(Cl)ccc2/C=C/C(=O)N2CCC(Cc3nnc(C)o3)CC2)n1` [Example 127, (E)-3-(4-Chloro-2-((5-methyl-2H-tetrazol-2-yl)methyl)phenyl)-1-(4-((5-methyl-1,3,4-oxadiazol-2-yl)methyl)piperidin-1-yl)prop-2-en-1-one] stands 0.06 µM. Under `Cc1nnn(Cc2cc(Cl)ccc2/C=C/C(=O)N2CCC(c3ccc(F)cc3)CC2)n1` [Example 64, (E)-3-(4-Chloro-2-((5-methyl-2H-tetrazol-2-yl)methyl)phenyl)-1-(4-(4-fluorophenyl)piperidin-1-yl)prop-2-en-1-one] stands 0.031 µM; under `Cc1nnn(Cc2cc(Cl)ccc2/C=C/C(=O)N2CCC(O)C[C@@H]2C)n1` (single isomer, unassigned) [Example 50a, (E)-3-(4-chloro-2-((5-methyl-2H-tetrazol-2-yl)methyl)phenyl)-1-((2S, 4R or 4S)-4-hydroxy-2-methylpiperidin-1-yl)prop-2-en-1-one], 0.07 µM; under `CC(=O)C1CCCN(C(=O)/C=C/c2ccc(Cl)cc2Cn2nnc(C)n2)C1` (centres unmarked) [Example 49.15, (E)-1-(3-Acetylpiperidin-1-yl)-3-(4-chloro-2-((5-methyl-2H-tetrazol-2-yl)methyl)phenyl)prop-2-en-1-one], 0.127 µM.

These data come from patent US9763957B2, “Autotaxin inhibitors” (Novartis AG, priority 2013, dated 2017).
